US6573045B1, “Methods and kits for discovery of RNA-binding compounds” (Ribotargets, Ltd., priority 1998, dated 2003)
Read-outs that look alike come from different tables or passages of the source.

How the values were obtained:
TAR RNA = test: Competition binding assay, FAM-labelled TAR RNA Duplex-1 / TAMRA-labelled ADP-1; design: species or system HIV; details: for Ki: 2 nM FAM-labelled TAR RNA, 18 nM unlabelled TAR RNA; for binding to TAR RNA (competitor efficiency): FIG. 8 and FIG. 9
Protocol: This experiment was performed with a starting condition in which there is an equimolar ratio of TAMRA-labelled ADP-1 peptide and TAR RNA (both labelled and unlabelled). A pre-mix is prepared on ice containing 2 nM FAM-labelled TAR RNA, 18 nM unlabelled TAR RNA and 20 nM TAMRA-labelled ADP-1 peptide diluted in TK buffer to provide the final concentrations (as detailed above) in each 200 μl reaction volume. The ADP-1 peptide was prepared as a 2 fold dilution series in TK buffer at 10 times the assay concentration and diluted 10 fold into the final assay volume. The competition assays were equilibrated for 15 minutes at room temperature and the fluorescence-emission spectra at 535 nm determined in a Wallac Victor™ 1420 following excitation at 485 nm.
Under these conditions, the Ki for the unlabelled ADP-1 competitor was measured as 100 nM.
TAMRA-labelled ADP-1 peptide and increasing concentrations of C5 cyclic peptide (SEQ ID 9). A pre-mix is prepared on ice containing the FAM-labelled TAR RNA, unlabelled TAR RNA and the TAMRA-labelled ADP-1 peptide diluted in TK buffer to provide the final concentrations (as detailed above) in each 200 μl reaction volume. The C5 cyclic peptide was prepared as a 2 fold dilution series in TK buffer at 10 times the assay concentration and diluted 10 fold in to the final assay volume.

FAM-labelled TAR RNA = test: Quenching of FAM-labelled TAR RNA by unlabelled ADP-1 peptide; type: binding, HIV; details: 2 nM FAM-TAR
Protocol: The FAM-TAR was diluted from a 100 nM stock solution in TK buffer (50 mM Tris-HCl pH7.6, 20 mM KCl) to obtain a final assay concentration of 2 nM in 200 μl reaction volume. The unlabelled ADP-1 peptide was prepared in TK buffer as a 2 fold dilution series at 10 times the assay concentration and diluted 10 fold into the final assay volume (200 μl). After complex formation was performed for 20 minutes at room temperature the fluorescence-emission at 535 nm was determined in a Wallac Victor™ 1420 following excitation at 485 nm.
The level of fluorescence obtained in the absence of the unlabelled ADP-1 peptide is normalised to 100% and the levels of fluorescence obtained in the presence of the unlabelled ADP-1 peptide are expressed as a percentage of this value.

TAR RNA Duplex-2 = test: Competition binding assay, FAM-labelled TAR RNA Duplex-2 / TAMRA-labelled ADP-1; design: species or system HIV; details: saturating concentrations of ADP-1 competitor
From the text: In order to obtain efficient fluorescent resonance energy transfer and/or quenching it is important that the fluorescent groups are placed on the reporter and the target RNA to permit close contact between the donor and acceptors after complex formation. In this experiment the FAM group on the TAR RNA target (Duplex 2) has been displaced by the addition of a base pair. This alteration to the target RNA structure has the effect of increasing the distance of the FAM group from the binding site on the TAR RNA duplex by 2 Å more than the equivalent group on the TAR RNA Duplex 1 target. In addition, insertion of the base pair rotates the FAM group by 18° compared to the equivalent group in the Duplex-1 TAR RNA target.
Because Duplex-2 has a sub-optimal spacing of the FAM-label on TAR RNA it gives rise to a poor signal in the assay compared to Duplex-1, with a less than 50% rise in fluorescence in the presence of saturating concentrations of ADP-1 competitor.

[1] = target: FAM-labelled TAR RNA duplex 1; test: Quenching of FAM-labelled TAR RNA by TAMRA-labelled ADP-1 (complex formation); type: binding, HIV
Protocol: In this experiment, 2 nM FAM-labelled TAR RNA was mixed with increasing concentrations of TAMRA-labelled ADP-1 peptide. The FAM-TAR was diluted from a 100 nM stock solution in TK buffer (50 mM Tris-HCl pH 7.6, 20 mM KCl) to obtain a final assay concentration of 2 nM in 200 μl reaction volume. The TAMRA-labelled ADP-1 peptide was prepared in TK buffer as a 2-fold dilution series at 10 times the assay concentration and diluted 10 fold in to the final assay volume (200 μl). Complex formation was performed for 20 minutes at room temperature and the fluorescence-emission spectra at 535 nm determined in a Wallac Victor™ 1420 following excitation at 485 nm.
The level of fluorescence obtained in the absence of TAMRA-labelled ADP-1 peptide gave a fluorescence intensity of 2100 units. As the ADP-1 concentration is increased there is a progressive loss of fluorescence intensity detected, until at concentrations of ADP-1 greater than 100 nM there is over 80% loss of fluorescence intensity and there is no further quenching detected.

ss-19mer RNA = test: Dabcyl-peptide binding to Fam-labelled RNA (quenching), single stranded RNA; details: for Kd: ss-19mer, 110 mM KCl
From the text: (§1) A representative subset comprising 40 peptide sequences from the total of 243 possible sequences was synthesised and is shown in Table 6. The peptides from the library are: No. 3 (SEQ ID NO:11), 4 (SEQ ID NO:12), 5 (SEQ ID NO:13), 6 (SEQ ID NO:14), 7 (SEQ ID NO:15), 8 (SEQ ID NO:16), 9 (SEQ ID NO:17), 10 (SEQ ID NO:18), 11 (SEQ ID NO:19), 12 (SEQ ID NO:20), 13 (SEQ ID NO:21), 14 (SEQ ID NO:22), 15 (SEQ ID NO:23), 16 (SEQ ID NO:24), 17 (SEQ ID NO:25), 18 (SEQ ID NO:26), 19 (SEQ ID NO:27), 20 (SEQ ID NO:28), 21 (SEQ ID NO:29), 22 (SEQ ID NO:30), 23 (SEQ ID NO:31), 24 (SEQ ID NO:32), 25 (SEQ ID NO:33), 26 (SEQ ID NO:34), 27 (SEQ ID NO:35), 28 (SEQ ID NO:36), 29 (SEQ ID NO:37), 30 (SEQ ID NO:38), 31 (SEQ ID NO:39), 32 (SEQ ID NO:40), 33 (SEQ ID NO:41), 34 (SEQ ID NO:42), 35 (SEQ ID NO:43), 36 (SEQ ID NO:44), 37 (SEQ ID NO:45), 38 (SEQ ID NO:46), 39 (SEQ ID NO:47), 40 (SEQ ID NO:48), 41 (SEQ ID NO:49), 42 (SEQ ID NO:50). These peptides were assayed for their ability to bind to range of RNA sequences carrying fluorescein attached to the 5′ end, as shown in FIG. 25.
(§2) FIG. 26. presents binding data for the peptide sequence 5 (KKQKR) (SEQ ID NO: 13) and the 4 RNA sequences. Reactions (100 μl) containing Fam-labelled RNA (10 nM) were mixed with increasing concentrations of Dabcyl-labelled ADP-1 peptide (up to 250 nM) in 50 mM Tris/Cl, pH7.4, 20 mM or 110 mM KCl (as indicated), 5 μg/ml BSA, 0.01% Triton X-100, 1% DMSO. Fluorescence (excitation 490 nm/emission at 535 nm) was determined using a Victor plate reader.
(§3) Dissociation constants were determined by fitting a binding isotherm (1-site-binding) to the data using the equation:
(§4) Y=((Fmax−Fmin)−((Fmax−Fmin)*X/(Kd+X)))+Fmin
(§5) where Fmax is fluorescence in the absence of quencher, Fmin is fluorescence at saturation, and X is peptide concentration.

GTPase-LHL RNA = test: Dabcyl-peptide binding to Fam-labelled RNA (quenching), GTPase LHL; details: for Kd: GTPase-LHL, 110 mM KCl; for binding to the GTPase RNA: FIG. 27
From the text: as §1, §2, §3, §4, §5

RRE RNA = test: Dabcyl-peptide binding to Fam-labelled RNA (quenching), RRE; design: species or system HIV; details: for Kd: RRE, 110 mM KCl
From the text: as §1, §2, §3, §4, §5

TAR bulge RNA = test: Dabcyl-peptide binding to Fam-labelled RNA (quenching), TAR; design: species or system HIV; details: 110 mM KCl
From the text: as §1, §2, §3, §4, §5

[2] = 20 nM TAMRA-labelled ADP-1, 0-100 μM cyclic peptide, average ± SD of three, read-out: Ki

Substance	Kd (ss-19mer RNA) [nM]	Kd (GTPase-LHL RNA) [nM]	Kd (TAR bulge RNA) [nM]	other results
ADP-1: unlabelled peptide derived from HIV Tat, residues 37 to 72 (SEQ ID NO: 7) (FTTKALGISYGRKKRRQRRRPPQGSGTHQVSLSKQ; Human immunodeficiency virus)	–	–	–	Ki (TAR RNA; 20 nM TAMRA-labelled ADP-1, read-out: Ki for the unlabelled ADP-1 competitor): 100 nM; quenching of the FAM group present on TAR RNA (FAM-labelled TAR RNA): ≤ 20%; rise in fluorescence (TAR RNA Duplex-2): less than 50%
TAMRA-Phe-Thr-Thr-Lys-Ala-Leu-Gly-Ile-Ser-Tyr-Gly-Arg-Lys-Lys-Arg-Arg-G ln-Arg-Arg-Arg-Pro-Pro-Gln-Gly-Ser-Gln-Thr-His-Gln-Val-Ser-Leu-Ser-Lys-Gln [TAMRA-labelled ADP-1]	–	–	–	Kd ([1]; 2 nM FAM-labelled TAR RNA, TK buffer, read-out: binding constant (Kd) of TAMRA-labelled ADP-1 for FAM-labelled TAR RNA duplex 1): ~25 nM; loss of fluorescence intensity ([1]; concentrations of ADP-1 greater than 100 nM): over 80%
c(KRRFR) [C5] (cyclo(KRRFR); also: D-residues marked by underlining, not recoverable) [cyclic pentapeptide]	–	–	–	Ki (TAR RNA; [2]): 1870 ± 420 nM; binding to TAR RNA (competitor efficiency) (TAR RNA): most efficient competitors
cyclo(KRRFR) [C5/1]	–	–	–	Ki (TAR RNA; [2]): 15300 ± 2500 nM
cyclo(KRRFR) [C5/2]	–	–	–	Ki (TAR RNA; [2]): 12700 ± 6580 nM
cyclo(KRRFR) [C5/3]	–	–	–	Ki (TAR RNA; [2]): 15200 ± 3790 nM
cyclo(KRRFR) [C5/4]	–	–	–	Ki (TAR RNA; [2]): 8280 ± 3010 nM; binding to TAR RNA (competitor efficiency) (TAR RNA): most efficient competitors
cyclo(KRRFR) [C5/5]	–	–	–	Ki (TAR RNA; [2]): 17100 ± 13000 nM
library peptide Dabcyl-Thr-Arg-Lys-X-X-X-X-X-Arg-Lys-Ser-Gly with X5 = KKKKK	> 500	26	24	Kd (RRE RNA): 12 nM
library peptide Dabcyl-Thr-Arg-Lys-X-X-X-X-X-Arg-Lys-Ser-Gly with X5 = KKKQR	> 500	76	27	Kd (RRE RNA): 30 nM
library peptide Dabcyl-Thr-Arg-Lys-X-X-X-X-X-Arg-Lys-Ser-Gly with X5 = KKQKR	> 500	74	56	binding of the peptide, measured by quenching of the fluorescenated RNA (ss-19mer RNA; single stranded RNA, FIG. 26): no significant binding; binding of the peptide, measured by quenching of the fluorescenated RNA (RRE RNA; RRE sequence compared with the other RNAs, FIG. 26): highest affinity binding; Kd (RRE RNA): 15 nM
library peptide Dabcyl-Thr-Arg-Lys-X-X-X-X-X-Arg-Lys-Ser-Gly with X5 = KKQRR	> 500	55	–	Kd (RRE RNA): 20 nM
library peptide Dabcyl-Thr-Arg-Lys-X-X-X-X-X-Arg-Lys-Ser-Gly with X5 = KKRQR	> 500	43	–	Kd (RRE RNA): 24 nM
library peptide Dabcyl-Thr-Arg-Lys-X-X-X-X-X-Arg-Lys-Ser-Gly with X5 = KQKKR	–	–	16	–
library peptide Dabcyl-Thr-Arg-Lys-X-X-X-X-X-Arg-Lys-Ser-Gly with X5 = KQKRR	–	–	11	–
library peptide Dabcyl-Thr-Arg-Lys-X-X-X-X-X-Arg-Lys-Ser-Gly with X5 = KQQQR	–	–	> 500	–
library peptide Dabcyl-Thr-Arg-Lys-X-X-X-X-X-Arg-Lys-Ser-Gly with X5 = KQRQR	–	–	9	–
library peptide Dabcyl-Thr-Arg-Lys-X-X-X-X-X-Arg-Lys-Ser-Gly with X5 = QQQKR	–	–	> 500	–
library peptide Dabcyl-Thr-Arg-Lys-X-X-X-X-X-Arg-Lys-Ser-Gly with X5 = QQQQQ	> 500	> 500	–	binding to the GTPase RNA (GTPase-LHL RNA): no significant binding
library peptide Dabcyl-Thr-Arg-Lys-X-X-X-X-X-Arg-Lys-Ser-Gly with X5 = QQQRR	–	–	> 500	–
library peptide Dabcyl-Thr-Arg-Lys-X-X-X-X-X-Arg-Lys-Ser-Gly with X5 = RQQQR	–	–	> 500	–
library peptide Dabcyl-Thr-Arg-Lys-X-X-X-X-X-Arg-Lys-Ser-Gly with X5 = RRRRR	194	16	–	binding to the GTPase RNA (GTPase-LHL RNA): Efficient binding; Kd (RRE RNA): 30 nM
